Measured values as given in patent US20210315893A1 (Galapagos NV, priority 2017, published 2021).

Experiments:
[1] = biological target: T1, human GPCR sphingosine 1-phosphate receptor 2 (Homo sapiens, UniProt O95136); experiment: S1PR2 antagonist Ca2+ flux assay; assay type: cell-based; settings: antagonist mode, CHO-S1PR2 cells, S1P at EC80, Ca2+ fluorescence; read-out: S1P2 EC50 (nM), S1P2 antagonist EC50
T1 construct: host or cells: CHO
Procedure, shortened: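 CHO cells stably expressing human S1PR2, serum-starved 1 h, Fluo8-loaded; compound-evoked Ca2+ fluorescence read 3 min (agonist mode), then after 15 min S1P at EC80 added and read 3 min (antagonist mode). Max/baseline fluorescence ratios normalised to vehicle and S1P EC100 or EC50 controls; EC50 derived.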

[2] = biological target: T2, human GPCR sphingosine 1-phosphate receptor 1 (Homo sapiens, UniProt P21453); experiment: S1PR1 selectivity Ca2+ flux assay (antagonist readout); assay type: cell-based; settings: antagonist readout, CHO cells overexpressing human S1PR1 and Gq, S1P at EC80 (6 nM); read-out: S1P1 EC50 (nM), S1P1 antagonist EC50
T2 construct: host or cells: CHO
Procedure, shortened: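 CHO cells stably overexpressing human S1PR1, starved 1 h in 0.1% FAF BSA medium, then Fluo 8 dye-loaded. Compound added, then after 15 min at 37 °C, S1P-evoked Ca2+ flux recorded. Maximal signal/background ratio normalized to controls as % inhibition; IC50 from four-parameter logistic fit.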

[3] = biological target: T3, human GPCR sphingosine 1-phosphate receptor 5 (Homo sapiens, UniProt Q9H228); experiment: S1PR5 selectivity Ca2+ flux assay (antagonist readout); assay type: cell-based; settings: CHO cells overexpressing human S1PR5 and Gq, agonist at EC80 (20 nM), read-out: S1P5 EC50 (nM), S1P5 antagonist EC50
T3 construct: host or cells: CHO
Source text: To evaluate the selectivity of the compounds for S1PR2 over S1PR1 and S1PR5, asimilar assay set upas described above for theS1PR2 calcium flux assays waspeformed: CHO cells stably overexpressing human GPCR sphingosine 1-phosphate receptor 1 and Gq protein (Euroscreen, FAST-0197A) or overexpressing human GPCR sphingosine 1-phosphate receptorS5 and Gq protein were used (Perkin Elmer, ES-593-A). In case of the S1PR5 assay triggering was done with an SPR5 specific agonist instead of with S1P (Hobson et al., 2015).
50 μL of Chinese hamster ovary (CHO) cells stably overexpressing human S1PR1 or S1PR5 are seeded in 384 well sterile microplates (7,500 cells/well or 10,000 cells/well respectively) and are incubated overnight at 37° C. under 5% CO2. Cells are subsequently washed twice with 25 μL/well of starvation medium (F-12 Ham's medium containing 0.1% fatty acid free bovine serum albumin (FAF BSA)). After one h starvation at 37° C., 5% CO2, cells are loaded with 25 μL of Fluo 8 dye diluted in Hank's balanced salt solution (HBSS) with 20 mM Hepes complemented with 5 mM of probenecid following the recommendations of the manufacturer (one h at 37° C., 5% CO2). Dilution series of compounds are prepared in HBSS buffer with 20 mM Hepes and 0.1% BSA (FAF). 10 μL of diluted compound is added to the cells using the FDSS/pCELL and intracellular calcium changes are measured immediately by recording fluorescence during 3 min (agonist readout). The ratio of maximal signal over background before compound injection is used to determine compound response.
After an incubation of 15 min at 37° C., following the agonist readout, the plates are transferred to the FDSS/pCELL reader. Cells are stimulated with 10 μL of EC80 concentration of S1P (6 nM for S1P1 and 20 nM for S1P5) and intracellular calcium changes are measured immediately by recording fluorescence during three min (antagonist readout). The ratio of maximal signal over background before S1P injection was used to determine the inhibitory effect ofthe compound.
Raw data obtained in each experiment (ratio of maximal signal over background for calcium mobilization assays) were normalized in percentage of activation (agonist mode) or inhibition (antagonist mode) using positive and negative experiment controls. Each individual plate quality was assessed by evaluation of Z′ factor calculated with raw data using the following equation
Y=bottom+(top−bottom)/(1+(10^(Log IC50−X)*Hillslope)) where X is the logarithm of the concentration of the compound

S1PR2 = biological target: T4, S1PR2 (Homo sapiens, UniProt O95136); experiment: S1PR2 binding assay (competition with radioactively labeled S1P, SpA); settings: membranes from stable cell line over expressing S1PR2, SpA beads; read-out: S1P2 EC50 (nM), S1PR2 binding EC50
T4 construct: expressed in transfected cells
Procedure, shortened: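 Competition with [3H]S1P for membranes from a stable S1PR2-overexpressing cell line, 20 μg/well, captured on PVT-WGA SPA beads, in 20 mM Tris pH 7.5, 10 mM MgCl2, 100 mM NaCl, 0.4% fatty-acid-free BSA, 1 mM Na3VO4. 2 h at room temperature, then centrifugation and scintillation counting.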

HFL-1 cells [4] = experiment: IL-8 production assay (S1P induced IL-8); assay type: cell-based; settings: Homo sapiens, HFL1; S1P (1 μM) induced IL-8 in HFL-1 cells, starvation medium without HSA; read-out: IL8 EC50
Procedure, shortened: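 HFL-1 human fetal lung fibroblasts were starved in F12K/1% FBS, then given compound for 1 h (10-point, 1/3 dilution, 30 μM top, 0.3% DMSO final). S1P was added at 1 μM final for 16–24 h at 37 °C, and secreted IL-8 in supernatant quantified by ELISA.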

HFL-1 cells [5] = experiment: IL8 assay in the presence of Human Serum Albumin; settings: HFL1, read-out: HSA IL8 EC50
Procedure: To evaluate the influence of plasma protein binding of S1P as well as compound, the S1P induced IL-8 levelswereevaluatedin presence of Human Serum Albumin (HSA, equivalent to 40% human serum).
Human Fetal Lung cells (HFL-1) are seeded in 96 well plates in growth medium (F12K+10% heat inactivated FBS+1% Pen/strep). […] On day three, compounds are added (10 point serial dilution, 30 μM highest concentration, 1/3 dilution, 0.3% DMSO final) and plates are incubated for 1 h at 37° C., 5% CO2. Subsequently S1P at 5 μM final concentration is added and plates are incubated for 16 to 24 h at 37° C., 5% COafter which the supernatant was collected. IL-8 levels in the supernatant are determined with the IL-8 ELISA of R&D systems.

T4 sequence (O95136 whole entry): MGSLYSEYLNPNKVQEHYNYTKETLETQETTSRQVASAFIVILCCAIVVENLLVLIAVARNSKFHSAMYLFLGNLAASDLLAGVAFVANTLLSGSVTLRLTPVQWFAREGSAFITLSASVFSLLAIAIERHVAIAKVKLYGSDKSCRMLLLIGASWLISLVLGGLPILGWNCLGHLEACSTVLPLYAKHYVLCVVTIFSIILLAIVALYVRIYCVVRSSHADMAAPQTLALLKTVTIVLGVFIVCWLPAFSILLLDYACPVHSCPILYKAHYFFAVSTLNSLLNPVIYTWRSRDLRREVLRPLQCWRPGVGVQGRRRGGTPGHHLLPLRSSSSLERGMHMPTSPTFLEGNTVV
T1 sequence (O95136 whole entry): as above
T2 sequence (P21453 whole entry): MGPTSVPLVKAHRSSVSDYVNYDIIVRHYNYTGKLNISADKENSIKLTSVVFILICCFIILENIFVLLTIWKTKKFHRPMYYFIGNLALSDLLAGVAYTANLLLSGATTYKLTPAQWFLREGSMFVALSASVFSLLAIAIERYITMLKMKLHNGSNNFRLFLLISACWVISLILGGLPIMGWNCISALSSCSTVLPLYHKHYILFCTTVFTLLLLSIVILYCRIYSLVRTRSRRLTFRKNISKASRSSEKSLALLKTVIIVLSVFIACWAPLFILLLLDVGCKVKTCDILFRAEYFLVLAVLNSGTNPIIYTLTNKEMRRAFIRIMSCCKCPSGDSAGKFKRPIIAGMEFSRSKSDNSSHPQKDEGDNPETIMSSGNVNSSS
T3 sequence (Q9H228 whole entry): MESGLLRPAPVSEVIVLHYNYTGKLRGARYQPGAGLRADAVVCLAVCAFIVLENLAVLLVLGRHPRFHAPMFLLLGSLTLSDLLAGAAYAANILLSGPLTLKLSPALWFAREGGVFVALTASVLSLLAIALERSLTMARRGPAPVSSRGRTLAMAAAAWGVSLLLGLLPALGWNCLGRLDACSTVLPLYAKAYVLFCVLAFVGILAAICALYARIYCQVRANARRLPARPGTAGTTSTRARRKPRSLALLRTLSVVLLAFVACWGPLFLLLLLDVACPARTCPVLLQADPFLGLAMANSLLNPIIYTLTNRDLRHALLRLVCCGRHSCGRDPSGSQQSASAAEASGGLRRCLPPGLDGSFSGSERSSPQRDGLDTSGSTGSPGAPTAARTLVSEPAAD

EC50 [1] | EC50 [2] | EC50 [3] | EC50 (S1PR2) | EC50 (HFL-1 cells [4]) | EC50 (HFL-1 cells [5]) | Structure (SMILES)
2080 nM | ≥ 19800 nM | 19800 nM | 1030 nM | 108 nM | 91.1 nM | COCCOc1cc2nc(Cc3nn(C4CCNC4)c(=O)c4ccccc34)[nH]c2cc1C#N (stereo not drawn) [Compound 65, 6-(2-methoxyethoxy)-2-[(4-oxo-3-pyrrolidin-3-yl-phthalazin-1-yl)methyl]-3H-benzimidazole-5-carbonitrile]
37.4 nM | ≥ 19800 nM | 19800 nM | 64.9 nM | 9.07 nM | 19.2 nM | COCCOc1cc2nc(Cc3nn(C4CCNC4)c(=O)c4ccccc34)[nH]c2cc1Cl (stereo not drawn) [Compound 67, 4-[[6-chloro-5-(2-methoxyethoxy)-1H-benzimidazol-2-yl]methyl]-2-pyrrolidin-3-yl-phthalazin-1-one]
547 nM | ≥ 19800 nM | 19800 nM | 275 nM | 76.7 nM | 123 nM | N#Cc1cc2[nH]c(Cc3nn(C4CNC4)c(=O)c4ccccc34)nc2cc1OCC(F)F [Compound 68, 2-[[3-(azetidin-3-yl)-4-oxo-phthalazin-1-yl]methyl]-6-(2,2-difluoroethoxy)-3H-benzimidazole-5-carbonitrile]
238 nM | ≥ 19800 nM | 19800 nM | 272 nM | 109 nM | 96.3 nM | N#Cc1cc2[nH]c(Cc3nn(C4CN(CC(=O)O)C4)c(=O)c4ccccc34)nc2cc1OCC(F)F [Compound 69, 2-[3-[4-[[6-cyano-5-(2,2-difluoroethoxy)-1H-benzimidazol-2-yl]-methyl]-1-oxo-phthalazin-2-yl]azetidin-1-yl]acetic acid]
836 nM | ≥ 19800 nM | 19800 nM | 2100 nM | 251 nM | 443 nM | N#Cc1cc2[nH]c(Cc3nn(CC4CCCN4CC(=O)O)c(=O)c4ccccc34)nc2cc1OCC(F)F (stereo not drawn) [Compound 70, 2-[2-[[4-[[6-cyano-5-(2,2-difluoroethoxy)-1H-benzimidazol-2-yl]methyl]-1-oxo-phthalazin-2-yl]methyl]pyrrolidin-1-yl]acetic acid]
356 nM | ≥ 19800 nM | 19800 nM | 357 nM | 156 nM | 134 nM | N#Cc1cc2[nH]c(Cc3nn(C4CCN(CC(=O)O)C4)c(=O)c4ccccc34)nc2cc1OCC(F)F (stereo not drawn) [Compound 71, 2-[3-[4-[[6-cyano-5-(2,2-difluoroethoxy)-1H-benzimidazol-2-yl]methyl]-1-oxo-phthalazin-2-yl]pyrrolidin-1-yl]acetic acid]

Continued, compound first:

Structure (SMILES) | EC50 [1] | EC50 [2] | EC50 [3] | EC50 (S1PR2) | EC50 (HFL-1 cells [4]) | EC50 (HFL-1 cells [5])
N#Cc1cc2nc(Cc3nn(C4CC4)c(=O)c4ccccc34)[nH]c2cc1OCC1CC1 [Compound 42, 6-(cyclopropylmethoxy)-2-[(3-cyclopropyl-4-oxo-phthalazin-1-yl)methyl]-1H-benzimidazole-5-carbonitrile] | 19.7 nM | ≥ 19800 nM | 19800 nM | 20.6 nM | 30.9 nM | 443 nM
N#Cc1cc2[nH]c(Cn3nc(CC(=O)N4CCOCC4)c(=O)c4ccccc43)nc2cc1OCC(F)F [Compound 49, 6-(2,2-Difluoro-ethoxy)-2-[3-(2-morpholin-4-yl-2-oxo-ethyl)-4-oxo-4H-cinnolin-1-ylmethyl]-3H-enzoimidazole-5-carbonitrile] | 32.8 nM | ≥ 19800 nM | 19800 nM | 92.7 nM | 31.7 nM | 47.1 nM
O=C(Cc1nn(Cc2nc3cc(OCC(F)F)c(F)cc3[nH]2)c2ccccc2c1=O)N1CCOCC1 [Compound 50, 1-[5-(2,2-Difluoro-ethoxy)-6-fluoro-1H-benzoimidazol-2-ylmethyl]-3-(2-morpholin-4-yl-2-oxo-ethyl)-1H-cinnolin-4-one] | 195 nM | ≥ 19800 nM | 19800 nM | 267 nM | 246 nM | 365 nM
COCCOc1cc2nc(Cc3nn(CC(=O)N4CCOCC4)c(=O)c4ccccc34)[nH]c2cc1C#N [Compound 51, 6-(2-methoxyethoxy)-2-[[3-(2-morpholino-2-oxo-ethyl)-4-oxo-phthalazin-1-yl]methyl]-3H-benzimidazole-5-carbonitrile] | 77.3 nM | ≥ 19800 nM | 19800 nM | 366 nM | 177 nM | 291 nM
CC(F)(F)COc1cc2nc(Cc3nn(CC(=O)N4CCOCC4)c(=O)c4ccccc34)[nH]c2cc1C#N [Compound 52, 6-(2,2-difluoropropoxy)-2-[[3-(2-morpholino-2-oxo-ethyl)-4-oxo-phthalazin-1-yl]methyl]-3H-benzimidazole-5-carbonitrile] | 11.6 nM | ≥ 19800 nM | 19800 nM | 105 nM | 46.7 nM | 50 nM
O=c1c2ccccc2c(Cc2nc3cc(Cl)c(OC(F)(F)F)cc3[nH]2)nn1CC1CCNCC1 [Compound 56, 4-[[6-chloro-5-(trifluoromethoxy)-1H-benzimidazol-2-yl]methyl]-2-(4-piperidylmethyl)phthalazin-1-one] | 839 nM | ≥ 19800 nM | 19800 nM | 722 nM | 3330 nM | 2930 nM
O=c1c2ccccc2c(Cc2nc3cc(Cl)c(OC(F)(F)F)cc3[nH]2)nn1CC1CCNC1 (stereo not drawn) [Compound 57, 4-[[6-chloro-5-(trifluoromethoxy)-1H-benzimidazol-2-yl]methyl]-2-(pyrrolidin-3-ylmethyl)phthalazin-1-one] | 163 nM | ≥ 19800 nM | 19800 nM | 457 nM | 552 nM | 501 nM
O=c1c2ccccc2c(Cc2nc3cc(Cl)c(OC(F)(F)F)cc3[nH]2)nn1C1CCNC1 (stereo not drawn) [Compound 59, 4-[[6-chloro-5-(trifluoromethoxy)-1H-benzimidazol-2-yl]methyl]-2-pyrrolidin-3-yl-phthalazin-1-one] | 94.4 nM | ≥ 19800 nM | 19800 nM | 42 nM | 98.8 nM | 180 nM
N#Cc1cc2[nH]c(Cc3nn(C4CCNC4)c(=O)c4ccccc34)nc2cc1OCC(F)F (stereo not drawn) [Compound 64, 6-(2,2-difluoroethoxy)-2-[(4-oxo-3-pyrrolidin-3-yl-phthalazin-1-yl)methyl]-3H-benzimidazole-5-carbonitrile] | 137 nM | ≥ 19800 nM | 19800 nM | 131 nM | 25.6 nM | 33.5 nM
